# Data from US9546194B2, “Aminosteroids for the treatment of a PTP1B associated disease” (Ohr Pharmaceutical Inc., priority 2012, dated 2017).
# Legend:
# [1] = target: T1, full length tyrosine phosphatase PTP1B (Homo sapiens, UniProt P18031); assay: Inhibition of PTP1B (pNPP hydrolysis, absorbance at 405 nm); format: biochemical; settings: 5 μM aminosteroid analogue; pNPP substrate; read-out: PTP1B % Inhib. at (5 μM)
# T1 construct: purchased
# T1 sequence (P18031 1-435): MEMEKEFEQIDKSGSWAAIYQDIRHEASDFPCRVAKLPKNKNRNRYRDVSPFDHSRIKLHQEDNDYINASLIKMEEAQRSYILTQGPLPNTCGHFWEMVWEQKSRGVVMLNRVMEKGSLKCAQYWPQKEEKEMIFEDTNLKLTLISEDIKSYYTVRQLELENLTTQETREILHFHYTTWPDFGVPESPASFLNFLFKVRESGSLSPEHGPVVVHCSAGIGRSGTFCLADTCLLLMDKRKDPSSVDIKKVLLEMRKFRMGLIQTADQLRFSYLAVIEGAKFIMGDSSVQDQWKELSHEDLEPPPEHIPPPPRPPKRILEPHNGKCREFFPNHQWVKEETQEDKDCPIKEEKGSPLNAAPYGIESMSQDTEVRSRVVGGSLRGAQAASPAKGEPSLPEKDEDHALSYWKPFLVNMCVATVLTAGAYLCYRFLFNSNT
# Method: (§1) The aminosteroid analogues were tested for inhibition against the commercially available full length tyrosine phosphatase PTP1B. The ability of each analogue to inhibit the activity of PTP1B was measured in the presence of 5 μM of the aminosteroid analogue. The assay uses para-nitro-phenyl phosphate (pNPP), a non-specific substrate to assess phosphatase activity. Phosphatase activity was based on the ability of PTP1B to catalyze the hydrolysis of pNPP to p-nitrophenol (pNP).
# [2] = target: T2, full length TCPTP (Homo sapiens, UniProt P17706); assay: Inhibition of TCPTP (pNPP hydrolysis, same manner as PTP1B assay); format: biochemical; settings: 200 μM inhibitor; pNPP substrate; read-out: TCPTP % Inhib. at (200 μM)
# T2 construct: except full length TCPTP was used as the enzyme
# T2 sequence (P17706 1-415): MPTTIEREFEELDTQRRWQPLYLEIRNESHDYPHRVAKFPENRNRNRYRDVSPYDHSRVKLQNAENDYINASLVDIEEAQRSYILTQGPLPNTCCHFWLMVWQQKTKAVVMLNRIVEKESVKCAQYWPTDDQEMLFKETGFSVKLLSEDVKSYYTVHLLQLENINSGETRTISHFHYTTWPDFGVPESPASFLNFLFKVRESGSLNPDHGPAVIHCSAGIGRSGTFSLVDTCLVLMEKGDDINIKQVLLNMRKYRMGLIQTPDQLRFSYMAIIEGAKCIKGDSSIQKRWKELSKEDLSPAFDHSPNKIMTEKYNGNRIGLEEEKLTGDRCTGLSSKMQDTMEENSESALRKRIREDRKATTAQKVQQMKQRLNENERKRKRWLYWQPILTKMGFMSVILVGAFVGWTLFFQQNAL
# Method: as §1
# The aminosteroid analogues were also tested for their ability to inhibit the tyrosine phosphatase TCPTP as an indication of their potential toxicity by the inhibition of the immune response. The TCPTP inhibition assay was done in the same manner as the PTP1B assay except full length TCPTP was used as the enzyme and the inhibitor was at a concentration of 200 μM. The results of the TCPTP inhibition assays are shown in Table 1, column 4 and show three compounds that inhibit TCPTP less than 50% even at a […] greater concentration.
# [3] = system: ob/ob (Lep^ob) mouse; assay: Fasting blood glucose (FBG) in ob/ob mouse; format: in vivo; settings: ob/ob mice; 5 or 10 mg/kg ip every 3 days, 4 doses; study day 14 after overnight fast
# Method: (§2) To determine in vivo efficacy of the aminosteroid analogues an ob/ob (Lep^ob) mouse model was used. Ob/ob mice are extensively used for screening of antidiabetic and/or anti-obesity agents. Ob/ob mice were treated with either saline or 5 or 10 mg/kg aminosteroid analogue every 3 days for a total of 4 doses via ip injection. Body weight, glucose tolerance and fasting blood glucose levels were measured for each group during the study. Each group had at least an N of 4 animals. All reagents and lab animals are commercially available.
# On study day 13, all animal groups were fasted overnight. On study day 14, 25 μL of whole blood was collected and analyzed for the glucose level (mg/dL) using a glucose analyzer.
# [4] = Body weight change in ob/ob mouse; format: in vivo; settings: ob/ob mice; 5 or 10 mg/kg ip every 3 days, 4 doses; % change in body weight vs study day 0, up to 30 days
# Method: as §2
# Starting at study day 0, body weight measurements were taken every day for each group for up to 30 days. Percent change in body weight was calculated as the fractional response of body weight on study day X over the original body weight on study day 0.
# [5] = system: ob/ob (Lep^ob) mouse; assay: Oral glucose tolerance test (OGTT) in ob/ob mouse; format: in vivo; settings: ob/ob mice; for change in vivo: Mus musculus, 336 h, 5 or 10 mg/kg ip every 3 days, 4 doses, OGTT study day 14, 1.5 g/kg oral glucose, 0-120 min, read-out: AbAUC % Change From Saline; for reduction in AbAUC compared to saline control (significance): OGTT study day 14, p<0.05
# Method: as §2
# On study day 14, an oral glucose tolerance test (OGTT) was performed to assess glucose tolerance. At time 0, an oral glucose challenge (1.5 g/kg) was administered by oral gavage. At time points 0, 15, 30, 60, 90, and 120 min post glucose load, 25 μl of whole blood was withdrawn from the tail vein of the animal and the glucose level was measured using a glucose analyzer. The glucose concentration vs time was plotted and the above baseline area under the curve (AbAUC) of the glucose excursion time curve was determined using trapezoidal rule analyses.
Structure (SMILES),inhibition at 5 µM [1],inhibition at 200 µM [2],FBG % Change From Saline [3],% BW Nader [4],change in vivo [5],reduction in AbAUC compared to saline control (significance) [5]
CC(C)CCC[C@@H](C)[C@H]1CCC2C3C[C@@H](O)[C@H]4C[C@H](NCCCNCCCCNCCCN)CC[C@]4(C)C3CC[C@@]21C (stereo partly drawn) [MSI-2517],51%,11%,–,–,–,–
COC(=O)CC[C@@H](C)[C@H]1CCC2C3C(CC[C@@]21C)[C@@]1(C)CCC(NCCNC(C)C)C[C@@H]1C[C@H]3NS(C)(=O)=O (stereo partly drawn) [MSI-2527],102%,15%,32.2%,0.0%,-33%,significant reduction
COC(=O)CC[C@@H](C)[C@H]1CCC2C3C(CC[C@@]21C)[C@@]1(C)CCC(NCCNC(C)C)C[C@@H]1C[C@H]3S(C)(=O)=O (stereo partly drawn) [MSI-2530],46%,1%,–,–,–,–
COC(=O)CC[C@@H](C)[C@H]1CCC2C3C[C@H](O)[C@@H]4C[C@H](NCCNC(C)C)CC[C@]4(C)C3CC[C@@]21C (stereo partly drawn) [MSI-2523],101%,8%,–,–,–,–
CC(C)CCC[C@@H](C)[C@H]1CCC2C3C[C@@H](O)[C@H]4C[C@H](NCCCNCCCCN)CC[C@]4(C)C3CC[C@@]21C (stereo partly drawn) [MSI-2506],60%,60%,–,–,–,–
COC(=O)CC[C@@H](C)[C@H]1CCC2C3C(CC[C@@]21C)[C@@]1(C)CC[C@H](NCCNC(C)C)C[C@@H]1C[C@H]3NC(C)=O (stereo partly drawn) [MSI-2532],53%,4%,−0.7%,−0.8%,-56.6%,significant reduction
CC(C)NCCNC1CC[C@]2(C)C3CC[C@@]4(C)C(CC[C@@H]4[C@H](C)CCC(=O)O)C3C[C@@H](O)[C@H]2C1 (stereo partly drawn) [MSI-2515],89%,19%,–,–,–,–
CC(C)CCC[C@@H](C)[C@H]1CCC2C3C[C@@H](O)[C@H]4C[C@@H](NCCCNCCCCNCCCN)CC[C@]4(C)C3CC[C@@]21C (stereo partly drawn) [MSI-2516],56%,25%,–,–,–,–
"CC(C)[C@@H](CC[C@@H](C)[C@H]1CC[C@H]2[C@@H]3[C@H](O)C[C@H]4C[C@@H](NCCCNCCCCNCCCN)CC[C@]4(C)[C@H]3CC[C@]12C)OS(=O)(=O)O [MSI-1436, reference compound]",54%,–,−51.3%,−52.6%,-55.9%,–
COC(=O)CC[C@@H](C)[C@H]1CCC2C3C(CC[C@@]21C)[C@@]1(C)CC[C@@H](NCCCCNCc2cccnc2)C[C@@H]1C[C@H]3O (stereo partly drawn) [MSI-2510],72%,23%,12.0%,1.6%,-32.9%,significant reduction
COC(=O)CC[C@@H](C)[C@H]1CCC2C3CC[C@@H]4C[C@@H](NCCNC(C)C)CC[C@]4(C)C3CC[C@@]21C (stereo partly drawn) [MSI-2522],104%,50%,–,–,–,–
COC(=O)CC[C@@H](C)[C@H]1CCC2C3C(CC[C@@]21C)[C@@]1(C)CC[C@H](NCCNC(C)C)C[C@H]1C[C@H]3O (stereo partly drawn) [MSI-2520],103%,19%,34.7%,0.5%,-30.1%,significant reduction
COC(=O)CC[C@@H](C)[C@H]1CCC2C3C(CC[C@@]21C)[C@@]1(C)CC[C@H](NCCN2CCCCC2)C[C@@H]1C[C@H]3O (stereo partly drawn) [MSI-2518],102%,12%,–,–,–,–
COC(=O)CC[C@@H](C)[C@H]1CCC2C3C(CC[C@@]21C)[C@@]1(C)CCC(NCCNC(C)C)C[C@@H]1C[C@H]3O (stereo partly drawn) [MSI-2519],102%,26%,–,–,–,–
COC(=O)CC[C@@H](C)[C@H]1CCC2C3CC[C@@H]4C[C@H](NCCN(C)C)CC[C@]4(C)C3CC[C@@]21C (stereo partly drawn) [MSI-2534],–,0%,–,–,–,–
CC(C)CCC[C@@H](C)[C@H]1CCC2C3C[C@@H](O)[C@H]4C[C@@H](NCCCN)CC[C@]4(C)C3CC[C@@]21C (stereo partly drawn) [MSI-2505],39%,–,–,–,–,–
COC(=O)CC[C@@H](C)[C@H]1CCC2C3CC[C@@H]4C[C@H](NCCNC(C)C)CC[C@]4(C)C3CC[C@@]21C (stereo partly drawn) [MSI-2521],103%,67%,–,–,–,–
CC(C)CCC[C@@H](C)[C@H]1CCC2C3C[C@@H](O)[C@H]4C[C@@H](NCCN)CC[C@]4(C)C3CC[C@@]21C (stereo partly drawn) [MSI-2502],0%,–,–,–,–,–
CCNC(=O)N(CCCN(C)C)C(=O)C(C)[C@H]1CCC2C3CC[C@H]4CC(NCCNC)CC[C@]4(C)C3CC[C@@]21C (stereo partly drawn) [MSI-2500],0%,–,–,–,–,–
COC(=O)CC[C@@H](C)[C@H]1CCC2C3CC[C@@H]4CC(NCCN(C)C)CC[C@]4(C)C3CC[C@@]21C (stereo partly drawn) [MSI-2535],–,8%,–,–,–,–
COC(=O)CC[C@@H](C)[C@H]1CCC2C3CC[C@@H]4C[C@@H](NCCNC(C)C)CC[C@]4(C)C3C[C@H](O)[C@@]21C (stereo partly drawn) [MSI-2526],104%,–,–,–,–,–
COC(=O)CC[C@@H](C)[C@H]1CCC2C3C(CC[C@@]21C)[C@@]1(C)CC[C@H](NCCNC(C)C)C[C@@H]1C[C@H]3S(C)(=O)=O (stereo partly drawn) [MSI-2531],48%,1%,–,–,–,–
COC(=O)CC[C@@H](C)[C@H]1CCC2C3C[C@H](O)[C@@H]4C[C@@H](NCCNC(C)C)CC[C@]4(C)C3CC[C@@]21C (stereo partly drawn) [MSI-2524],103%,15%,–,–,–,–
COC(=O)CC[C@@H](C)[C@H]1CCC2C3C(CC[C@@]21C)[C@@]1(C)CC[C@@H](NCCNC(C)C)C[C@@H]1C[C@H]3SC (stereo partly drawn) [MSI-2529],64%,4%,–,–,–,–
CC(C)CCC[C@@H](C)[C@H]1CCC2C3C[C@@H](O)[C@H]4C[C@H](NCCCN)CC[C@]4(C)C3CC[C@@]21C (stereo partly drawn) [MSI-2504],43%,22%,–,–,–,–
CCN(C(=O)NCCCN(C)C)C(=O)C(C)[C@H]1CCC2C3CC[C@H]4CC(NCCNC)CC[C@]4(C)C3CC[C@@]21C (stereo partly drawn) [MSI-2501],0%,–,–,–,–,–
COC(=O)CC[C@@H](C)[C@H]1CCC2C3C(CC[C@@]21C)[C@@]1(C)CCC(NCCN(C)C)C[C@H]1C[C@H]3O (stereo partly drawn) [MSI-2533],–,5%,–,–,–,–
COC(=O)CC[C@@H](C)[C@H]1CCC2C3C(CC[C@@]21C)[C@@]1(C)CCC(NCCNC(C)C)C[C@@H]1C[C@H]3NC(=O)OC (stereo partly drawn) [MSI-2528],75%,2%,–,–,–,–
